Experimental data as given in PubChem BioAssay AID2745 (NMMLSC, 2010).
Active and inactive are the calls of the source. No rule for the calls is given here.

Experiment: concentration series on yeast TOR reporter LAP4 – cell-based, MLPCN hits, flow cytometry, dose response (AID 2745);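 also: yeast exposed to compound for three hours at 30 degrees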
Details: S. cerevisiae LAP4-GFP reporter, flow cytometry fluorescence; at 33 µM (top of the series)

Structure (SMILES) | LAP4-GFP fluorescence (kMESF)
CC[C@]1(c2ccccc2C)ON(c2ccccc2C(F)(F)F)C1=O | 3.33 kMESF (inactive)
O=C1N(c2ccccc2C(F)(F)F)O[C@]1(c1ccccc1)C1CCCCC1 | 2.33 kMESF (inactive)
Cc1c(N2C(=O)/C(=C\c3ccccc3O)SC2=S)c(=O)n(-c2ccccc2)n1C | 10.8 kMESF (inactive)
O=C1C(Cl)=C(N2CCN(Cc3ccccc3)CC2)C(=O)N1c1ccccc1 | 4.11 kMESF (inactive)
CC(C)C(=O)NC(c1cccs1)c1cc([N+](=O)[O-])c2cccnc2c1O (stereo not drawn) | 10.5 kMESF (inactive)
Cc1ccc(/C=C2\SC(=S)N(CC3CCCO3)C2=O)o1 (stereo not drawn) | 4.89 kMESF (inactive)
CC(C)[C@]1(c2ccc(Cl)cc2)ON(c2ccccc2C(F)(F)F)C1=O | 3.43 kMESF (inactive)
O=C(Nc1ccc(NC(=O)c2cc3ccccc3o2)cc1)c1ccc2c(c1)OCCO2 | 3.21 kMESF (inactive)
CC(C)[C@@]1(c2ccc(Cl)cc2)ON(c2ccccc2C(F)(F)F)C1=O | 3.53 kMESF (inactive)
COc1cc(C=C2C(=O)c3ccccc3C2=O)cc(OC)c1OC | 4.04 kMESF (inactive)
O=C(C#Cc1cccc([N+](=O)[O-])c1)c1ccccc1 | 8.01 kMESF (inactive)
COc1cccc(N=Cc2nc(-c3ccccc3)oc2OC(C)=O)c1 | 12.8 kMESF (inactive)
C[C@@H]1C[C@@H]([C@H](O)CC2CC(=O)NC(=O)C2)C(=O)[C@@H](C)C1 | 6.31 kMESF (inactive)
COc1cc(/C=C2\CC/C(=C\c3cc(OC)c(O)c(OC)c3)C2=O)cc(OC)c1O | 2.53 kMESF (inactive)
Oc1c(CN2CCN(c3ccccc3)CC2)cc(Br)c2cccnc12 | 20.9 kMESF (inactive)
O=C1CC(c2ccccc2)=NN1c1nc(-c2ccccc2)cs1 | 3.94 kMESF (inactive)
O=C1c2sc3nc4ccccc4n3c2C(=O)N1c1ccccc1Cl | 3.64 kMESF (inactive)
Nc1nc2ncc(CNc3ccc(C(=O)N[C@@H](CCC(=O)O)C(=O)O)cc3)nc2c(=O)[nH]1 | 4.01 kMESF (inactive)
COc1ccc(C2(C)ON(c3ccccc3C(F)(F)F)C2=O)cc1 (stereo not drawn) | 6.61 kMESF (inactive)
O=C(Sc1cccc2cccnc12)c1ccccc1Br | 18.8 kMESF (inactive)
O=[N+]([O-])c1ccc(-c2cn3nc(-c4ccccc4)c(-c4ccccc4)nc3n2)cc1 | 9.37 kMESF (inactive)
N#Cc1cc([N+](=O)[O-])c(-n2nnc3ccccc32)c([N+](=O)[O-])c1 | 14.5 kMESF (inactive)

Structure (SMILES) | LAP4-GFP fluorescence (kMESF)
O/C=c1\ccc2cccc3nc(C(F)(F)F)nc1c23 | 15.8 kMESF (inactive)
[O-][n+]1cccc2c(Br)cc(Br)c(O)c21 | 12.9 kMESF (inactive)
Cc1ccc(/C=C2\C(=O)NC(=S)N(c3ccccc3F)C2=O)s1 | 5.57 kMESF (inactive)
Cc1ccc2nc(/C(C#N)=C/c3ccc(O)c(O)c3)[nH]c2c1 | 4.39 kMESF (inactive)
COc1cc(/C=C2\C(=O)ON=C2c2ccc(Cl)cc2)ccc1O | 9.12 kMESF (inactive)
O=C(NOC(=O)c1ccccc1)c1ccccc1 | 10.6 kMESF (inactive)
Cc1nn2c(NCc3ccccn3)c3c(nc2c1-c1ccccc1)CCC3 | 7.76 kMESF (inactive)
COc1ccc(OCC(=O)NNC(=S)NC(=O)C2CCCCC2)cc1 | 14.4 kMESF (inactive)
CCc1cccc2sc(N3CCN(C(=O)c4ccc([N+](=O)[O-])o4)CC3)nc12 | -0.3 kMESF (inactive)
Cc1ccc(/C=C2\SC(=S)N(Cc3ccccc3)C2=O)o1 | 18.1 kMESF (inactive)
N#Cc1c2ccc([N+](=O)[O-])cc2[n+]([O-])n1-c1ccccc1 | 4.85 kMESF (inactive)
O=C(O)C1Sc2[nH]c(=O)sc2C2c3cc(Br)ccc3OC(=O)C12 (stereo not drawn) | 5.82 kMESF (inactive)
CCN(CC(=O)NC(C)(C)C)C(=O)COc1c(Cl)cc(Cl)c2ccc(C)nc12 | 11.7 kMESF (inactive)
COc1ccc(/C=C2/C(=O)ON=C2c2ccccc2)cc1OC | 14 kMESF (inactive)
COc1ccc2c(c1)c1nnc(SC)nc1n2C | 4.19 kMESF (inactive)
O=[N+]([O-])c1c(Nc2ccccn2)cc(Cl)c2nonc12 | 36.2 kMESF (inactive)
C=CCOc1cccc(C(=O)/C=C2/C(=O)Nc3ccccc32)c1 | 8.61 kMESF (inactive)
COc1ccc(C(=O)NC(=S)NNC(=O)c2cnccn2)cc1OC | 9.2 kMESF (inactive)
O=C(/C=C/c1ccccc1)NC(=S)NNC(=O)Cc1cccs1 | 3.64 kMESF (inactive)
CC(c1ccccc1)N1C(=O)/C(=C/c2ccncc2)SC1=S (stereo not drawn) | 11.3 kMESF (inactive)
Fc1cccc(Nc2ncnc3c2cnn3-c2ccccc2)c1 | 5.86 kMESF (inactive)
